pIC50: −log10 of the molar value.

The target of one test is T1, ABHD6 (Mus musculus, UniProt Q8R2Y0).
T1 construct: endogenous ABHD6 in mouse brain proteome
T1 sequence (Q8R2Y0 1-336): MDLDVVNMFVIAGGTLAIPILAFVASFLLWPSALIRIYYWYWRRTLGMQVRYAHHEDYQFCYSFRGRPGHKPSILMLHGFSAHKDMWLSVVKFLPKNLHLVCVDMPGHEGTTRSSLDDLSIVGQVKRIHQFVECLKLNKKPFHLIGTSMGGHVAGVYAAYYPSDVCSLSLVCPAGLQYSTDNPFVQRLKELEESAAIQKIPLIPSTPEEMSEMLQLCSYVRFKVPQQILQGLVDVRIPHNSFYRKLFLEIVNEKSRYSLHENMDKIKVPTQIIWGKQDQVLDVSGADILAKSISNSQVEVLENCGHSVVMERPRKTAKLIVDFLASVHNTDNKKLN
Put plainly: competitive MS-based ABPP-ReDiMe (FP-biotin) in mouse brain proteome (off-target). The class given is cell-based.

In test [1] the target is T2, AIG1 (androgen induced gene 1) (Mus musculus, UniProt Q9D8B1).
T2 construct: endogenous AIG1 in mouse brain membrane proteome
T2 sequence (Q9D8B1 1-238): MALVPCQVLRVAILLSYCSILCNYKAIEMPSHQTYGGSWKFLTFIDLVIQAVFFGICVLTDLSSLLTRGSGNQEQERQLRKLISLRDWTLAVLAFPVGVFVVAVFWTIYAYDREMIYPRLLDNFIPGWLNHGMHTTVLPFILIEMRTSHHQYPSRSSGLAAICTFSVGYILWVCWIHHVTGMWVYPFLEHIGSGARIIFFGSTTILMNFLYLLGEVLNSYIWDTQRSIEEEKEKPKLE
Put plainly: competitive gel-based ABPP (FP-Rh) in mouse brain membrane proteome; also MS-based ABPP and in vivo target engagement. The class given is biochemical.

For the compound `CN(c1ccn(C(=O)N2CCc3ccc(Oc4ccccc4)cc3C2)n1)S(C)(=O)=O` [ABD-110, N-methyl-N-(1-(7-phenoxy-1,2,3,4-tetrahydroisoquinoline-2-carbonyl)-1H-pyrazol-3-yl)methanesulfonamide], the “competitive MS-based ABPP-ReDiMe (FP-biotin) in mouse brain proteome (off-target)” value on ABHD6 is “with only a few off-targets detected, including ABHD6 and several highly homologous, mouse-specific carboxylesterases (CESs)”. The negative logarithm of the IC50 (pIC50) (usually −log10 of the IC50, conventionally taken in molar units) in test [1] is 8.80.

The values are drawn from publication PMC11139994, “Inflammation causes insulin resistance in mice via interferon regulatory factor 3 (IRF3)-mediated reduction in FAHFA levels” (Nature Communications, 2024).
